Reference: US7141603B2, “Antitumor agents” (The Regents of The University California, priority 1999, dated 2006)

Legend:
[1] = test system: 8392 (B-cell leukemia/lymphoma) cells; assay: Test A in vitro cytotoxicity, 2 hour exposure, [3H]-thymidine incorporation; type: cell-based; details: read-out: 2 hour IC50 8392, mean ± 1 standard deviation
Experimental: (§1) To assess cytotoxic effects, various concentrations of compounds of the invention were added to cultures of MV522 (human lung carcinoma cell line), HL60 (myeloid leukemia cells), and 8392 (B-cell leukemia/lymphoma) cells for 48 hours, then cell growth/viability was determined by trypan blue exclusion. As an alternative to 48 hour continuous exposure studies, cells were plated in liquid culture in 96 well plates, exposed to various concentrations of compounds of the invention for 2 hours, pulsed with [^3H]-thymidine for one to two hours and harvested onto filter papers. The filter papers were added to vials containing scintillation fluid and residual radioactivity determined in a beta (scintillation) counter.
(§2) Values are reported as mean±1 standard deviation; units are nanomoles per liter; and NT signifies not tested.

[2] = test system: HL60 (myeloid leukemia cells); assay: as above; type: cell-based; details: read-out: 2 hour IC50 HL60, mean ± 1 standard deviation
Experimental: as §1, §2

[3] = test system: MV522 (human lung carcinoma cell line); assay: as above; type: cell-based; details: read-out: 2 hour IC50 MV522, mean ± 1 standard deviation
Experimental: as §1, §2

Dunning leukemia = details: rats with Dunning leukemia; cited from earlier work
solid tumor systems = details: cited from earlier work
[4] = test system: MV522 lung carcinoma xenograft; assay: Test B in vivo MV522 lung carcinoma xenograft; details: for MTD reached in Test B: daily IP for 5 consecutive days, MV522 xenograft mice; for relative tumor weight Wt/Wi Day 17 / relative tumor weight Wt/Wi Day 24 / relative tumor weight Wt/Wi Day 31: i.p. QD×5 on days 10-14, day ten = 1.0, dose: 1 14 mg/kg, 2 35 mg/kg, 13 32 mg/kg, 14 28 mg/kg
Source text: Several representative compounds of the invention were chosen for in vivo studies. […] Drug therapy was started 10 days after inoculation on a daily basis via IP route for 5 consecutive days. The animals were monitored for 3 weeks after start of therapy.
BALB/c nu/nu 4-week old female mice weighing 18–22 g were obtained from Simonsen, Inc. (Gilroy, Calif.) and maintained in the athymic mouse colony of the University of California (San Diego, Calif.) under pathogen free conditions using HEPA filter hoods. Animals were provided with sterilized food and water ad libitum in groups of 5 in plastic cages vented with polyester fiber filter covers. Clean, sterilized gowns, glove, face masks, and shoe and hood covers were worn by all personnel handling the animals. All studies were conducted in accordance with guidelines of the NIH “Guide for Care and Use of Animals” and approved by the University Institutional Animal Care and Use Committee (Protocol 3-006-2)
The MV522 lung carcinoma line used for xenograft studies was derived as described by Kelner et al. (Anticancer Res., 15: 867–872; 873–878 (1995)) and maintained in antibiotic-free RPMI 1640 (Mediatech, Herndon, Va.) supplemented with 10% fetal bovine serum and 2 mM glutamine in 37° C. humidified carbon dioxide incubator.
Each animal was earmarked and followed individually throughout the experiments. Mice received s.c. injections of the parental cell line MV522 using 10 million cells/inoculation over the shoulder. Ten days after s.c. implantation of the MV522 cells, when s.c. tumors were approximately 3×3 mm in size, animals received the desired drug and dosage. The effect of the compound on life span was calculated from median survival.
Although MV522 cells kill mice by metastases, primary s.c. tumor growth over the shoulder was monitored starting on the first day of treatment and at weekly intervals thereafter. Tumor size was measured in two perpendicular diameters. Tumor weights were estimated according to the formula w=(width)^2×length/2). Relative weights (RW) were calculated to standardized variability in tumor size among test groups at initiation of treatment using the formula RW=Wt/wi, where Wi is the tumor weight for a given animal at beginning of drug treatment and Wt is tumor weight at a subsequent time. Animals were necropsied, and organs were examined for evidence of metastases.
Comparison of survival curves between groups of animals was by the method of Kaplan and Meier. For comparison of relative tumor weights between multiple groups of animals, ordinary ANOVA followed by Tukey-Kramer multiple Comparison post ANOVA analysis was performed (Kelner et al. (Anticancer Res., 15: 867–872; 873–878 (1995)). Probability values (p) less than 0.05 were considered statistically significant.
Data was collected using eight animals in the control studies and four animals in each compound study. Values represent relative tumor weight or Wt/Wi (day ten by definition is 1.0). Drug was administered i.p. on days 10, 11, 12, 13, and 14 (QD×5 days).

[5] = Tolerated dose / toxicity on administration; details: chronically administered at 35 mg/kg
Source text: As one skilled in the art would recognize, the amount can be varied depending on the method of administration.

SMILES	IC50 [2] [µM]	IC50 [3] [µM]	relative tumor weight Wt/Wi Day 17 [4]	relative tumor weight Wt/Wi Day 24 [4]	relative tumor weight Wt/Wi Day 31 [4]	also measured
CC(=O)OCC1=CC2=C(C)C3(CC3)C(C)(O)C(=O)C2=C1 (centres unmarked) [Compound 3]	15.6	19.6				IC50 [1]: 62 µM
CC(=O)OCC1=C(COC(C)=O)C2=C(C)C3(CC3)C(C)(O)C(=O)C2=C1 (centres unmarked) [Compound 5]	38.4					
CC1=C2C(=CC(C)(C)[C@@H]2O)C(=O)[C@](C)(O)C12CC2 [Illudin M]						life span (Dunning leukemia): significantly increased; therapeutic index (solid tumor systems): low
CC(=O)OCC1=C(CO)C=C2C(=O)C(C)(O)C3(CC3)C(C)=C21 (centres unmarked) [Compound 4]	> 40	20.4				
CC1=C2C=C(CO)C=C2C(=O)C(C)(O)C12CC2 (centres unmarked) [Compound 1]			1.4 ± 0.7	7.0 ± 1.3	11.8 ± 3.0	IC50 [1]: 37 µM; MTD reached in Test B [4]: not
CC(=O)N[C@@H](CSCC1=C(C)C=C2C(=O)C(C)(O)C3(CC3)C(C)=C21)C(=O)O (some centres unmarked) [Compound 13]		10	2.3 ± 0.5	4.1 ± 0.8	4.7 ± 1.5	
COCC1=C(CO)C=C2C(=O)C(C)(O)C3(CC3)C(C)=C21 (centres unmarked) [Compound 8]	> 80	> 80				
CC1=C2C(=CC(CO)=C2CO)C(=O)C(C)(O)C12CC2 (centres unmarked) [Compound 2]		11.3	2.1 ± 0.2	3.3 ± 0.3	4.0 ± 0.9	toxicity on chronic administration [5]: without toxicity; MTD reached in Test B [4]: not
COCC1=CC2=C(C)C3(CC3)C(C)(O)C(=O)C2=C1 (centres unmarked) [Compound 7]	6					
COCC1=C(COC)C2=C(C)C3(CC3)C(C)(O)C(=O)C2=C1 (centres unmarked) [Compound 9]	49.8	> 50				
CC(=O)N[C@@H](CSCC1=C(C)C=C2C(=O)C(C)(O)C3(CC3)C(C)=C21)C(=O)N[C@H](C)c1ccccc1 (some centres unmarked) [Compound 14]		3.05	3.2 ± 0.6	4.1 ± 0.8	6.0 ± 1.8	
